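Abbreviation: GI50, concentration required for 50% inhibition of growth. Definition used: TGI = concentration required for complete inhibition of growth.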
Experiments:
Experiment in all cases: NCI anticancer screen, dose series, 384-well format
[1] = tested on: 786-0 renal
[2] = tested on: A498 renal
[3] = tested on: A549 NSCLC
[4] = tested on: ACHN renal
[5] = tested on: BT-549 breast
[6] = tested on: CAKI-1 renal
[7] = tested on: CCRF-CEM leukemia
[8] = tested on: COLO 205 colon
[9] = tested on: DU-145 prostate
[10] = tested on: EKVX NSCLC
[11] = tested on: HCC-2998 colon
[12] = tested on: HCT-116 colon
[13] = tested on: HCT-15 colon
[14] = tested on: HL-60(TB) leukemia
[15] = tested on: HOP-62 NSCLC
[16] = tested on: HOP-92 NSCLC
[17] = tested on: HS 578T breast
[18] = tested on: HT29 colon
[19] = tested on: IGROV1 ovarian
[20] = tested on: K-562 leukemia
[21] = tested on: KM12 colon
[22] = tested on: LOX IMVI melanoma
[23] = tested on: M14 melanoma
[24] = tested on: MALME-3M melanoma
[25] = tested on: MCF7 breast
[26] = tested on: MDA-MB-231 breast
[27] = tested on: MDA-MB-435 melanoma
[28] = tested on: MDA-MB-468 breast
[29] = tested on: MOLT-4 leukemia
[30] = tested on: NCI-H226 lung
[31] = tested on: NCI-H23 lung
[32] = tested on: NCI-H322M lung
[33] = tested on: NCI-H460 NSCLC
[34] = tested on: NCI-H522 lung
[35] = tested on: NCI/ADR-RES ovarian
[36] = tested on: OVCAR-3 ovarian
[37] = tested on: OVCAR-4 ovarian
[38] = tested on: OVCAR-5 ovarian
[39] = tested on: OVCAR-8 ovarian
[40] = tested on: PC-3 prostate
[41] = tested on: RPMI-8226 leukemia
[42] = tested on: RXF 393 renal
[43] = tested on: SF-268 CNS
[44] = tested on: SF-295 CNS
[45] = tested on: SF-539 CNS
[46] = tested on: SK-MEL-2 melanoma
[47] = tested on: SK-MEL-28 melanoma
[48] = tested on: SK-MEL-5 melanoma
[49] = tested on: SK-OV-3 ovarian
[50] = tested on: SN12C renal
[51] = tested on: SNB-19 CNS
[52] = tested on: SW-620 colon
[53] = tested on: T-47D breast
[54] = tested on: TK-10 renal
[55] = tested on: U251 glioblastoma
[56] = tested on: UACC-257 melanoma
[57] = tested on: UACC-62 melanoma
[58] = tested on: UO-31 renal

Cc1noc(C)c1-c1cnc2c(-c3ccc(C(=O)O)cc3)cn([C@@H](C)c3ccccn3)c2c1
GI50 [1]: 147 nM | TGI [1]: 9250 nM | GI50 [2]: 283 nM | TGI [2]: 2830 nM | GI50 [3]: 755 nM | TGI [3]: > 100000 nM | GI50 [4]: 627 nM | TGI [4]: 14900 nM | GI50 [5]: 60.1 nM | TGI [5]: 761 nM | TGI [6]: 3460 nM | GI50 [7]: 75.8 nM | TGI [7]: 2790 nM | GI50 [8]: 418 nM | TGI [8]: 6010 nM | GI50 [9]: 2400 nM | TGI [9]: > 100000 nM | GI50 [10]: 2950 nM | TGI [10]: > 100000 nM | GI50 [11]: 117 nM | TGI [11]: 1050 nM | GI50 [12]: 552 nM | TGI [12]: 23100 nM | GI50 [13]: 205 nM | TGI [13]: 10800 nM | GI50 [14]: 16.1 nM | TGI [14]: 142 nM | GI50 [15]: 228 nM | TGI [15]: 9580 nM | GI50 [16]: 188 nM | TGI [16]: 39400 nM | GI50 [17]: 51.4 nM | TGI [17]: 1280 nM | GI50 [18]: 301 nM | TGI [18]: > 100000 nM | GI50 [19]: 78.7 nM | TGI [19]: 1980 nM | GI50 [20]: 173 nM | TGI [20]: > 100000 nM | GI50 [21]: 579 nM | TGI [21]: 19300 nM | GI50 [22]: 144 nM | TGI [22]: 381 nM | GI50 [23]: 209 nM | TGI [23]: 51900 nM | TGI [24]: 1730 nM | GI50 [25]: 15.9 nM | TGI [25]: 3130 nM | GI50 [26]: 123 nM | TGI [26]: 23800 nM | GI50 [27]: 805 nM | TGI [27]: > 100000 nM | GI50 [28]: 72.1 nM | TGI [28]: 919 nM | GI50 [29]: 103 nM | TGI [29]: 1470 nM | GI50 [30]: 406 nM | TGI [30]: 7350 nM | GI50 [31]: 366 nM | TGI [31]: 6370 nM | GI50 [32]: 619 nM | TGI [32]: 58400 nM | GI50 [33]: 3170 nM | TGI [33]: > 100000 nM | GI50 [34]: 15 nM | TGI [34]: 391 nM | GI50 [35]: 1180 nM | TGI [35]: 17200 nM | GI50 [36]: 116 nM | TGI [36]: 10300 nM | GI50 [37]: 167 nM | TGI [37]: 739 nM | GI50 [38]: 525 nM | TGI [38]: 27400 nM | GI50 [39]: 234 nM | TGI [39]: 2390 nM | GI50 [40]: 467 nM | TGI [40]: > 100000 nM | GI50 [41]: 12 nM | TGI [41]: 152 nM | GI50 [42]: 254 nM | TGI [42]: 1290 nM | GI50 [43]: 1470 nM | TGI [43]: 27000 nM | GI50 [44]: 1460 nM | TGI [44]: 28900 nM | GI50 [45]: 292 nM | TGI [45]: 1680 nM | GI50 [46]: 46.4 nM | TGI [46]: 14000 nM | GI50 [47]: 699 nM | TGI [47]: > 100000 nM | GI50 [48]: 61.6 nM | TGI [48]: 3080 nM | GI50 [49]: 445 nM | TGI [49]: 9820 nM | GI50 [50]: 1040 nM | TGI [50]: > 100000 nM | GI50 [51]: 554 nM | TGI [51]: > 100000 nM | GI50 [52]: 4750 nM | TGI [52]: 73900 nM | GI50 [53]: 201 nM | TGI [53]: 3310 nM | GI50 [54]: 34.3 nM | TGI [54]: 989 nM | GI50 [55]: 1770 nM | TGI [55]: 30100 nM | GI50 [56]: 219 nM | TGI [56]: 9840 nM | GI50 [57]: 37.8 nM | TGI [57]: 1270 nM | GI50 [58]: 323 nM | TGI [58]: 13400 nM

Source: PubChem BioAssay (NCI)
